Data: article doi:10.1101/2025.01.28.635346v1 (bioRxiv, 2025)
Bridge positions count the residues as written; N and C are the ends. Peptide text beside a SMILES is read from it.

Tests used:
[1] = biological target: integrin αvβ8 (Homo sapiens, UniProt P06756+P26012); experiment: ELISA competition assay, integrin αvβ8 binding to LAP
[2] = biological target: integrin αvβ6 (Homo sapiens, UniProt P06756+P18564); experiment: ELISA competition assay, integrin αvβ6 binding to LAP; conditions: αvβ6 IC50, ELISA competition vs LAP; mean, n ≥ 3

**Q.** How did the IC50 [1] turn out when `CC[C@H](C)[C@@H]1NC(=O)[C@H](CO)NC(=O)CC[C@@H](C(=O)N[C@@H](CCCNC(=N)N)C(=O)NCC(=O)N[C@@H](CC(=O)O)C(=O)N[C@@H](CC(C)C)C(=O)N[C@@H](CCC(N)=O)C(=O)N[C@H](C(=O)N[C@@H](Cc2ccc(O)cc2)C(=O)N[C@@H](Cc2c[nH]c3ccccc23)C(=O)N2CCC[C@H]2C(=O)O)[C@@H](C)O)NC(=O)[C@H](CCCNC(=N)N)NC(=O)[C@H](CC(C)C)NC(=O)CNC(=O)[C@H](CO)NC(=O)[C@H](CC(=O)O)NC(=O)CNC1=O` [lassotide 18] (SIGDSGLRERGDLQTYWP-OH; lactam N-9; C-terminus assumed) was run?
**A.** 2470 nM

**Q.** And the IC50 [2]?
**A.** 3200 nM

**Q.** How did the IC50 [1] turn out when `CC[C@H](C)[C@H](NC(=O)[C@H](CC(C)C)NC(=O)[C@H](CC(=O)O)NC(=O)CNC(=O)[C@H](CCCNC(=N)N)NC(=O)[C@H](C)NC(=O)[C@H](Cc1ccccc1)NC(=O)[C@H](Cc1ccc(O)cc1)NC(=O)[C@@H]1CCC(=O)NCC(=O)NCC(=O)N[C@@H](C)C(=O)NCC(=O)N[C@@H](Cc2c[nH]cn2)C(=O)N[C@@H](C(C)C)C(=O)N2CCC[C@H]2C(=O)N1)C(=O)N[C@@H](CO)C(=O)N[C@@H](Cc1ccccc1)C(=O)N[C@@H](Cc1ccc(O)cc1)C(=O)NCC(=O)O` [lassotide 19] (GGAGHVPEYFARGDLISFYG-OH; lactam N-8; C-terminus assumed) was run?
**A.** 24 nM

**Q.** And the IC50 [2]?
**A.** 66 nM

**Q.** Which IC50 [1] does the source give for `CC[C@H](C)[C@H](NC(=O)[C@H](CC(C)C)NC(=O)[C@H](CC(=O)O)NC(=O)CNC(=O)[C@H](CCCNC(=N)N)NC(=O)[C@@H](NC(=O)[C@H](Cc1ccccc1)NC(=O)[C@H](Cc1ccc(O)cc1)NC(=O)[C@@H]1CCC(=O)NCC(=O)NCC(=O)N[C@@H](CCCCN)C(=O)NCC(=O)N[C@@H](Cc2c[nH]cn2)C(=O)N[C@@H](C(C)C)C(=O)N2CCC[C@H]2C(=O)N1)C(C)C)C(=O)N[C@@H](CO)C(=O)N[C@@H](Cc1ccccc1)C(=O)N[C@@H](Cc1ccc(O)cc1)C(=O)NCC(=O)O` [lassotide 28] (GGKGHVPEYFVRGDLISFYG-OH; lactam N-8; C-terminus assumed) here?
**A.** 48 nM

**Q.** And the IC50 [2]?
**A.** 44 nM

**Q.** Which IC50 [1] does the source give for `CC[C@H](C)[C@H](NC(=O)[C@H](CC(C)C)NC(=O)[C@H](CC(=O)O)NC(=O)CNC(=O)[C@H](CCCNC(=N)N)NC(=O)[C@@H](NC(=O)[C@H](Cc1ccccc1)NC(=O)[C@H](Cc1ccc(O)cc1)NC(=O)[C@@H]1CCC(=O)NCC(=O)NCC(=O)N[C@@H](CCC(=O)O)C(=O)NCC(=O)N[C@@H](Cc2c[nH]cn2)C(=O)N[C@@H](C(C)C)C(=O)N2CCC[C@H]2C(=O)N1)C(C)C)C(=O)N[C@@H](CO)C(=O)N[C@@H](Cc1ccccc1)C(=O)N[C@@H](Cc1ccc(O)cc1)C(=O)NCC(=O)O` [lassotide 29] (GGEGHVPEYFVRGDLISFYG-OH; lactam N-8; C-terminus assumed) here?
**A.** 47 nM

**Q.** What about the IC50 [2] of the same compound?
**A.** 104 nM
